These results are taken from BindingDB's records for doi:10.1124/jpet.301.1.37 (National Institutes of Health, 2002).

Assay [1] addresses T1, VIP peptides (Cavia porcellus, UniProt P04566).
T1 sequence (P04566 whole entry): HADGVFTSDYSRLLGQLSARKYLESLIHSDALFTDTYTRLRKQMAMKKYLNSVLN

In assay [2] the target is T2, VIP peptides (Homo sapiens, UniProt P01282).
T2 sequence (P01282 whole entry): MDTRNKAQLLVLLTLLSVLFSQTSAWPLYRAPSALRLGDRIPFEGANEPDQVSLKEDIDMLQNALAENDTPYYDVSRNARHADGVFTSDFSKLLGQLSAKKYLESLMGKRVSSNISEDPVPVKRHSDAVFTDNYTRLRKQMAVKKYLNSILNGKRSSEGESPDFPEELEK

Assay [3] deals with T3, VIP peptides (Rattus norvegicus, UniProt P01283).
T3 sequence (P01283 whole entry): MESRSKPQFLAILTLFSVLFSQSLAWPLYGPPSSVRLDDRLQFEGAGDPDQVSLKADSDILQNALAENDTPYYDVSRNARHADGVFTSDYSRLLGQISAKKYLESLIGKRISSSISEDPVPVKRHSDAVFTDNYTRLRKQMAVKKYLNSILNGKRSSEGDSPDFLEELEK

Values joined by “and” are separate entries in the source; they are usually repeats but may differ in a detail not shown here. Equal values may be shown once.

As to `CC[C@H](C)[C@H](NC(=O)[C@H](CO)NC(=O)[C@H](CC(N)=O)NC(=O)[C@H](CC(C)C)NC(=O)[C@@H](Cc1ccc(O)cc1)NC(=O)[C@H](CCCCN)NC(=O)[C@H](CCCCN)NC(=O)[C@@H](NC(=O)[C@H](C)NC(=O)[C@H](CCSC)NC(=O)[C@H](CCC(N)=O)NC(=O)[C@H](CCCCN)NC(=O)[C@H](CCCN=C(N)N)NC(=O)[C@H](CC(C)C)NC(=O)[C@H](CCCN=C(N)N)NC(=O)[C@@H](NC(=O)[C@H](Cc1ccc(O)cc1)NC(=O)[C@H](CC(N)=O)NC(=O)[C@H](CC(=O)O)NC(=O)[C@@H](NC(=O)[C@H](Cc1ccccc1)NC(=O)[C@@H](NC(=O)[C@H](C)NC(=O)[C@H](CC(=O)O)NC(=O)[C@H](CO)NC(=O)[C@@H](N)Cc1cnc[nH]1)C(C)C)[C@@H](C)O)[C@@H](C)O)C(C)C)C(=O)N[C@@H](CC(C)C)C(=O)N[C@@H](CC(N)=O)C(N)=O` [VIP [D-Tyr22]], the Ki on VIP peptides [1] is 29.5 nM; at VIP peptides [2] it was 128 nM and 95.5 nM and 112 nM; on VIP peptides [3] it was 11.8 nM and 28.2 nM and 38.9 nM.
In the case of `CC[C@H](C)[C@H](NC(=O)[C@H](CO)NC(=O)[C@H](CC(N)=O)NC(=O)[C@H](CC(C)C)NC(=O)[C@H](Cc1ccc(O)cc1)NC(=O)[C@H](CCCCN)NC(=O)[C@H](CCCCN)NC(=O)[C@H](NC(=O)[C@H](C)NC(=O)[C@H](CCSC)NC(=O)[C@H](CCC(N)=O)NC(=O)[C@H](CCCCN)NC(=O)[C@H](CCCN=C(N)N)NC(=O)[C@H](CC(C)C)NC(=O)[C@H](CCCN=C(N)N)NC(=O)[C@@H](NC(=O)[C@H](Cc1ccc(O)cc1)NC(=O)[C@H](CC(N)=O)NC(=O)[C@H](CC(=O)O)NC(=O)[C@@H](NC(=O)[C@H](Cc1ccccc1)NC(=O)[C@@H](NC(=O)[C@H](C)NC(=O)[C@H](CC(=O)O)NC(=O)[C@H](CO)NC(=O)[C@@H](N)Cc1cnc[nH]1)C(C)C)[C@@H](C)O)[C@@H](C)O)C(C)C)C(=O)N[C@@H](CC(C)C)C(=O)N[C@@H](CC(N)=O)C(N)=O` [VIP [D-Val19]], the Ki was 34.6 nM at VIP peptides [1]; 10.9 nM and 69.2 nM and 58.9 nM at VIP peptides [2]; 6.3 nM and 29.5 nM and 25.1 nM at VIP peptides [3].
“H-HSAAVFTDNYTRLRKQMAVKKYLNSILN-NH2 [VIP Ala3]”: the Ki on VIP peptides [1] was 427 nM; on VIP peptides [2] it was 74.1 nM and 182 nM and 123 nM; at VIP peptides [3], 43.7 nM and 245 nM and 148 nM.
Take “H-HSDAVATDNYTRLRKQMAVKKYLNSILN-NH2 [VIP Ala16]”: the Ki on VIP peptides [1] was 2750 nM; on VIP peptides [2], 724 nM and 1150 nM and 794 nM; at VIP peptides [3], 661 nM and 1860 nM and 2340 nM.
Turning to “H-HSDAVFTDAYTRLRKQMAVKKYLNSILN-NH2 [VIP Ala9]”, the Ki on VIP peptides [1] is 1.6 nM; on VIP peptides [2], 0.29 nM and 1.8 nM and 1.4 nM; at VIP peptides [3] it was 0.16 nM and 1.3 nM and 0.49 nM.
“H-HSDAVFTDNYTALRKQMAVKKYLNSILN-NH2 [VIP Ala12]”: the inhibitory constant (Ki) was 56.1 nM at VIP peptides [1]; 53.7 nM and 61.7 nM and 50.1 nM at VIP peptides [2]; 12.3 nM and 34.7 nM and 30 nM on VIP peptides [3].
As for “H-HSDAVFTDNYTRARKQMAVKKYLNSILN-NH2 [VIP Ala13]”, the Ki at VIP peptides [1] was 9.5 nM; at VIP peptides [2] it was 6.6 nM and 7.2 nM and 3.4 nM; at VIP peptides [3], 1.9 nM and 9.3 nM and 10 nM.
Turning to “H-HSDAVFTDNYTRLAKQMAVKKYLNSILN-NH2 [VIP Ala14]”, the Ki at VIP peptides [1] was 61.6 nM; on VIP peptides [2], 24.6 nM and 174 nM and 111 nM; on VIP peptides [3], 30 nM and 45.7 nM and 51.3 nM.
Regarding “H-HSDAVFTDNYTRLRKQAAVKKYLNSILN-NH2 [VIP Ala17]”, the inhibitory constant (Ki) on VIP peptides [1] was 4 nM; at VIP peptides [2] it was 0.74 nM and 4.5 nM and 3.9 nM; at VIP peptides [3] it was 1.6 nM and 5 nM and 3.6 nM.
Take “H-HSDAVFTDNYTRLRKQMAAKKYLNSILN-NH2 [VIP Ala19]”: the Ki on VIP peptides [1] is 3.2 nM; on VIP peptides [2], 0.59 nM and 4.1 nM and 2.1 nM; on VIP peptides [3], 0.85 nM and 2.8 nM and 2.2 nM.
With “H-HSDAVFTDNYTRLRKQMAVKAYLNSILN-NH2 [VIP Ala21]”, the Ki on VIP peptides [1] is 3.2 nM; at VIP peptides [2], 0.87 nM and 5 nM and 5.1 nM; at VIP peptides [3], 0.38 nM and 2.1 nM and 0.51 nM.
In the case of “H-HSDAVFTDNYTRLRKQMAVKKALNSILN-NH2 [VIP Ala22]”, the Ki was 8.5 nM on VIP peptides [1]; 3.8 nM and 7.6 nM and 7.1 nM on VIP peptides [2]; 1.1 nM and 3.2 nM and 2.8 nM on VIP peptides [3].
Take “H-HSDAVFTDNYTRLRKQMAVKKYANSILN-NH2 [VIP Ala23]”: the Ki was 182 nM on VIP peptides [1]; 26.9 nM and 170 nM and 155 nM at VIP peptides [2]; 33.9 nM and 213 nM and 204 nM on VIP peptides [3].
Regarding “H-HSDAVFTDNYTRLRKQMAVKKYLNSIAN-NH2 [VIP Ala27]”, the Ki at VIP peptides [1] was 2.4 nM; on VIP peptides [2] it was 0.37 nM and 2.3 nM and 2.5 nM; at VIP peptides [3], 0.59 nM and 4.7 nM and 2 nM.
